According to patent US7125997B2, “Differential tumor cytotoxicity compounds and compositions” (IRM LLC, priority 2002, dated 2006):

System: Human SW620 colon tumor cells
Assay: alamarBlue cell viability (cytotoxicity) assay, SW620
Type: cell-based
Details: SW-620, 48 h, SW620 cell line, two days incubation, alamarBlue fluorescence
Protocol: Human SW620 colon tumor cells are cultivated using 10% FCS/DMEM (Invitrogen) medium. The cells are plated into 384 well plates at a density of 8000 cells per well in a volume of 50 μL. The cells are placed in a 37° C. incubator and allowed to adhere overnight. Test compounds are added to the cells in a volume of 500 nL (final DMSO concentration in assay is 1%). Serial dilutions of the test compound are added (the top concentration of compound is 10 micromolar (final assay concentration) followed by 11 two fold dilutions. The cells are incubated for a further two days. A solution (50 μL) comprised of 20% alamarBlue™ (Biosource International, Inc.) and 80% assay medium is added to each well and the plates are incubated at 37° C. for a further 4 hours. The plates are read by fluorescence (530 nm excitation, 580 nm emission) on an Acquest reader (LJL Biosystems). The IC50 is defined as the concentration of a test compound at the end of the incubation period, which leads to 50% of cell viability per well compared with the control (concentration at semi-maximum inhibition of cell growth).

O=C(Nc1ccc(N2CCOCC2)cc1)c1ccc(Nc2ccc(OC(F)(F)F)cc2)cc1 [Example 1, N-(4-Morpholin-4-yl-phenyl)-4-(4-trifluoromethoxy-phenylamino)-benzamide]
IC50: 26 nM
